Measurements reported in ChEMBL document CHEMBL1201862, “PubChem BioAssay data set” (2004).
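Cultured in 96-well plates, cells were exposed to test compound for 48 hours across five concentrations. GI50: concentration for 50% inhibition of growth.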 Activity calls are given as the source filed them. Cut-off read from the data, not from the text of the source: active = GI50 up to about 1.1 µM and inactive = higher.

Assays:
Test in all cases: growth of human tumour cells (NCI), 48 h
XF498 = system: XF498
DMS-273 = system: DMS-273
SNB-78 = system: SNB-78
RXF 631 = system: RXF 631
KM-20L2 = system: KM-20L2
Hs-578T = system: Hs-578T
MDA-MB-231 = system: MDA-MB-231
BT-549 = system: BT-549
MDA-N = system: MDA-N

COc1cc(/C=N/c2nncs2)ccc1O
GI50 (XF498): > 100 µM (inactive) | GI50 (DMS-273): > 100 µM (inactive) | GI50 (SNB-78): > 100 µM (inactive) | GI50 (RXF 631): > 100 µM (inactive) | GI50 (KM-20L2): > 100 µM (inactive)

COC(=O)C(CC=O)C(=O)C(=O)Nc1cccc(C(F)(F)F)c1 (centres undefined)
GI50 (XF498): > 100 µM (inactive) | GI50 (SNB-78): > 100 µM (inactive) | GI50 (RXF 631): > 100 µM (inactive) | GI50 (KM-20L2): > 100 µM (inactive)

CC(C)(C)c1ccc(Oc2ccc(C#N)c(C#N)c2)c(C(C)(C)C)c1
GI50 (XF498): 12.6 µM (inactive) | GI50 (DMS-273): 15.2 µM (inactive) | GI50 (SNB-78): 42.5 µM (inactive) | GI50 (RXF 631): > 60.3 µM (inactive) | GI50 (KM-20L2): 44 µM (inactive)

Cn1c(CCC#N)nc2ccc(Br)cc2c1=O
GI50 (XF498): > 100 µM (inactive) | GI50 (RXF 631): > 100 µM (inactive) | GI50 (KM-20L2): > 100 µM (inactive)

Cc1cc2c(=O)cc(-c3ccc(C(=O)O)cc3)oc2c(C(N)=O)c1C
GI50 (DMS-273): > 100 µM (inactive) | GI50 (SNB-78): > 100 µM (inactive) | GI50 (RXF 631): > 100 µM (inactive) | GI50 (KM-20L2): > 100 µM (inactive)

O=C(c1cc(O)ccc1O)c1ccccc1C(Cl)(Cl)Cl
GI50 (XF498): 34.9 µM (inactive) | GI50 (DMS-273): > 100 µM (inactive) | GI50 (SNB-78): > 100 µM (inactive) | GI50 (KM-20L2): > 100 µM (inactive)

COC(=O)c1c(OC)cccc1C(=O)O
GI50 (DMS-273): > 100 µM (inactive) | GI50 (SNB-78): > 100 µM (inactive) | GI50 (RXF 631): > 100 µM (inactive) | GI50 (KM-20L2): > 100 µM (inactive)

CC1CC(=O)Nc2ccc(Cl)cc2N1C(=O)CN1CCC(CCCCN(C)C)CC1 (centres undefined)
GI50 (DMS-273): > 100 µM (inactive) | GI50 (RXF 631): > 100 µM (inactive) | GI50 (KM-20L2): 43.2 µM (inactive)

CCCCC(C(=O)CCC(=O)Nc1ccc(Cl)cc1)C(=O)C(C)C (centres undefined)
GI50 (XF498): > 100 µM (inactive) | GI50 (DMS-273): > 100 µM (inactive) | GI50 (SNB-78): > 100 µM (inactive) | GI50 (RXF 631): > 100 µM (inactive) | GI50 (KM-20L2): > 100 µM (inactive)

C[C@]12CC[C@H](O)CC1=CC[C@@H]1C2CC[C@]2(C)NC(=O)C(C#N)CC12 (some centres undefined)
GI50 (XF498): > 100 µM (inactive) | GI50 (DMS-273): > 100 µM (inactive) | GI50 (SNB-78): > 100 µM (inactive) | GI50 (KM-20L2): > 100 µM (inactive)

O=S1(=O)OCCOS(=O)(=O)C1I
GI50 (XF498): > 100 µM (inactive) | GI50 (DMS-273): > 100 µM (inactive) | GI50 (SNB-78): > 100 µM (inactive) | GI50 (RXF 631): > 100 µM (inactive)

OCC(O)C(O)C(O)c1nn(-c2ccc(Cl)cc2)c2nc3cc(Cl)c(Cl)cc3nc12 (centres undefined)
GI50 (XF498): 11.1 µM (inactive) | GI50 (DMS-273): > 100 µM (inactive) | GI50 (SNB-78): 20.7 µM (inactive) | GI50 (KM-20L2): > 100 µM (inactive)

N#CC(/C(=N\NC(N)=S)C(=O)NC1C2CC3CC(C2)CC1C3)c1ccc(Cl)cc1 (centres undefined)
GI50 (XF498): > 100 µM (inactive) | GI50 (DMS-273): > 100 µM (inactive) | GI50 (SNB-78): > 100 µM (inactive) | GI50 (RXF 631): > 100 µM (inactive) | GI50 (KM-20L2): > 100 µM (inactive)

O=C1NC(Cc2ccccc2)C(=O)N2CCCC12 (centres undefined)
GI50 (XF498): > 100 µM (inactive) | GI50 (DMS-273): > 100 µM (inactive) | GI50 (SNB-78): > 100 µM (inactive) | GI50 (KM-20L2): > 100 µM (inactive)

CN(C)c1ccc(/C=C/C(=O)c2ccccc2)cc1Br
GI50 (XF498): 16.3 µM (inactive) | GI50 (KM-20L2): 25.1 µM (inactive)

CCCNCc1nc2ccc(Br)cc2c(=O)n1CCC
GI50 (XF498): 16.9 µM (inactive) | GI50 (DMS-273): 12.4 µM (inactive) | GI50 (SNB-78): 17.5 µM (inactive) | GI50 (RXF 631): 7.05 µM (inactive) | GI50 (KM-20L2): 19.2 µM (inactive)

CCC(=O)N1C(=O)OCC1C(C)C (centres undefined)
GI50 (XF498): > 100 µM (inactive) | GI50 (DMS-273): > 100 µM (inactive) | GI50 (SNB-78): > 100 µM (inactive) | GI50 (RXF 631): > 100 µM (inactive) | GI50 (KM-20L2): > 100 µM (inactive)

Clc1ccc(/C=C/c2csnn2)cc1
GI50 (XF498): > 100 µM (inactive) | GI50 (DMS-273): > 100 µM (inactive) | GI50 (SNB-78): > 100 µM (inactive) | GI50 (KM-20L2): > 100 µM (inactive)

C[C@H]1NC(=O)C2CCCCN2C(=O)CN(C)C(=O)CNC(=O)C2CCCCN2C(=O)[C@@H](NC(=O)c2nc3ccccc3cc2O)[C@@H](C)NC(=O)C2CCCCN2C(=O)CN(C)C(=O)CNC(=O)[C@@H]2CCCCN2C(=O)C1NC(=O)c1nc2ccccc2cc1O (some centres undefined)
GI50 (DMS-273): 0.0255 µM (active) | GI50 (SNB-78): 0.0865 µM (active) | GI50 (RXF 631): 0.164 µM (active) | GI50 (KM-20L2): 0.378 µM (active)

CC(=O)/C(C)=N/NC(=O)c1ccccc1O
GI50 (XF498): > 10 µM (inactive) | GI50 (Hs-578T): > 100 µM (inactive) | GI50 (MDA-MB-231): > 100 µM (inactive) | GI50 (DMS-273): > 10 µM (inactive) | GI50 (BT-549): > 100 µM (inactive) | GI50 (SNB-78): > 10 µM (inactive) | GI50 (MDA-N): > 100 µM (inactive) | GI50 (RXF 631): > 10 µM (inactive) | GI50 (KM-20L2): > 10 µM (inactive)

COc1cc2c(cc1O)[C@H](Cc1ccc(Oc3cc(C[C@H]4c5cc(OC)c(OC)cc5CCN4C)ccc3OC)cc1)NCC2
GI50 (XF498): 11.2 µM (inactive) | GI50 (DMS-273): 19.5 µM (inactive) | GI50 (RXF 631): 15.5 µM (inactive) | GI50 (KM-20L2): 10.1 µM (inactive)

CCCCCCCCCCCCCC(=O)CSCCNC(=O)CCNC(=O)[C@@H](O)C(C)(C)COP(=O)(O)OP(=O)(O)OCC1OC(n2cnc3c(N)ncnc32)C(O)C1OP(=O)(O)O (some centres undefined)
GI50 (XF498): 18.5 µM (inactive) | GI50 (DMS-273): 11.2 µM (inactive) | GI50 (SNB-78): 15.5 µM (inactive) | GI50 (KM-20L2): 19.4 µM (inactive)

CN1OC2OC(=O)OC2[C@H]1[C@H]1O[C@H](c2ccccc2)OC1(C)c1cc(OC(=O)c2ccccc2)ccc1OC(=O)c1ccccc1 (some centres undefined)
GI50 (XF498): > 50 µM (inactive) | GI50 (DMS-273): > 50 µM (inactive) | GI50 (SNB-78): > 50 µM (inactive) | GI50 (RXF 631): > 50 µM (inactive) | GI50 (KM-20L2): > 50 µM (inactive)

COC(=O)C1CC(OC(C)=O)C=C2C(=O)CCC21 (centres undefined)
GI50 (DMS-273): 17.2 µM (inactive) | GI50 (SNB-78): 24.1 µM (inactive) | GI50 (RXF 631): 27.5 µM (inactive) | GI50 (KM-20L2): 30.2 µM (inactive)

CC(C)c1ccc(C(c2ccc(OCC(=O)O)cc2)c2ccc(C(C)C)cc(=O)c2O)c(O)c(=O)c1
GI50 (XF498): 2.63 µM (inactive) | GI50 (DMS-273): 3.45 µM (inactive) | GI50 (SNB-78): 6.79 µM (inactive) | GI50 (RXF 631): 5.08 µM (inactive) | GI50 (KM-20L2): 3.54 µM (inactive)
